From article PMC4782136 (Scientific Reports, 2016)
Like-named read-outs stand apart in the source and are kept apart here. Residues, ends and D or L forms follow the SMILES beside them. *: point of attachment. Arachidoyl = CCCCCCCCCCCCCCCCCCCC(=O)*; Stearoyl = CCCCCCCCCCCCCCCCCC(=O)*; Palmitoyl = CCCCCCCCCCCCCCCC(=O)*

Key:
[1] = tested on: influenza A/Puerto Rico/8/34 (H1N1); settings: /Puerto Rico/8/34, 24 h
[2] = in vitro; settings: dog
[3] = tested on: clinical isolate 690 (H3 subtype); assay: microbe, parasite or virus in culture; format: cell-based; settings: Influenza A virus, read-out: IC50 ± SD, H3 (690)
[4] = tested on: influenza B virus; assay: microbe, parasite or virus in culture; format: cell-based; settings: read-out: IC50 ± SD, B
[5] = tested on: clinical isolate 699 (H3 subtype); assay: microbe, parasite or virus in culture; format: cell-based; settings: Influenza A virus, read-out: IC50 ± SD, H3 (699)
[6] = tested on: influenza A/Puerto Rico/8/34 (H1N1); assay: microbe, parasite or virus in culture; settings: H1N1, MDCK, read-out: IC50 ± SD
[7] = tested on: influenza A/Aichi/2/68 (H3N2); assay: microbe, parasite or virus in culture; format: cell-based; settings: H3N2, read-out: IC50 ± SD, H3N2

Q: Which IC50 [1] does the source give for CCCCCCCCCCCCCCCCCC(=O)N[C@@H](CCCCN)C(=O)N[C@@H](CCCCN)C(=O)N[C@@H](Cc1c[nH]c2ccccc12)C(=O)N[C@@H](CCCCN)C(=O)NCC(=O)NCC(=O)NCC(=O)N[C@@H](C)C(=O)N[C@@H](CCCNC(=N)N)C(=O)N[C@@H](CC(C)C)C(=O)N1CCC[C@H]1C(=O)N[C@@H](CCCNC(=N)N)C(N)=O [C18-Hp-GGG-Jp, C18-KKWKGGGARLPR] (Stearoyl-KKWKGGGARLPR-NH2) here?
A: 6.99 ± 2 µM

Q: And the CC50 at 48 h [2]?
A: > 200 µM

Q: What does the source list for CCCCCCCCCCCCCCCCCCCC(=O)N[C@@H](CCCCN)C(=O)N[C@@H](CCCCN)C(=O)N[C@@H](Cc1c[nH]c2ccccc12)C(=O)N[C@@H](CCCCN)C(=O)NCC(=O)NCC(=O)NCC(=O)N[C@@H](C)C(=O)N[C@@H](CCCNC(=N)N)C(=O)N[C@@H](CC(C)C)C(=O)N1CCC[C@H]1C(=O)N[C@@H](CCCNC(=N)N)C(N)=O [C20-Hp-GGG-Jp, C20-KKWKGGGARLPR] (Arachidoyl-KKWKGGGARLPR-NH2)?
A: CC50: > 200 µM; IC50 [1]: 5.22 ± 0.37 µM

Q: Which IC50 [1] does the source give for CCCCCCCCCCCCCCCCCC(=O)N[C@@H](C)C(=O)N[C@@H](CCCNC(=N)N)C(=O)N[C@@H](CC(C)C)C(=O)N1CCC[C@H]1C(=O)N[C@@H](CCCNC(=N)N)C(=O)NCC(=O)NCC(=O)NCC(=O)N[C@@H](CCCCN)C(=O)N[C@@H](CCCCN)C(=O)N[C@@H](Cc1c[nH]c2ccccc12)C(=O)N[C@@H](CCCCN)C(N)=O [C18-Jp-GGG-Hp, C18-ARLPRGGGKKWK] (Stearoyl-ARLPRGGGKKWK-NH2) here?
A: 5.09 ± 0.35 µM

Q: What about the CC50 at 48 h [2] of the same compound?
A: > 200 µM

Q: Which IC50 [1] does the source give for CCCCCCCCCCCCCCCC(=O)N[C@@H](C)C(=O)N[C@@H](CCCNC(=N)N)C(=O)N[C@@H](CC(C)C)C(=O)N1CCC[C@H]1C(=O)N[C@@H](CCCNC(=N)N)C(=O)NCC(=O)NCC(=O)NCC(=O)N[C@@H](CCCCN)C(=O)N[C@@H](CCCCN)C(=O)N[C@@H](Cc1c[nH]c2ccccc12)C(=O)N[C@@H](CCCCN)C(N)=O [C16-Jp-GGG-Hp, C16-ARLPRGGGKKWK] (Palmitoyl-ARLPRGGGKKWK-NH2) here?
A: 6.79 ± 0.17 µM

Q: And the CC50 at 48 h [2]?
A: > 200 µM

Q: Which results are given for CCCCCCCCCCCCCCCC(=O)N[C@@H](CCCCN)C(=O)N[C@@H](CCCCN)C(=O)N[C@@H](Cc1c[nH]c2ccccc12)C(=O)N[C@@H](CCCCN)C(=O)NCC(=O)NCC(=O)NCC(=O)N[C@@H](C)C(=O)N[C@@H](CCCNC(=N)N)C(=O)N[C@@H](CC(C)C)C(=O)N1CCC[C@H]1C(=O)N[C@@H](CCCNC(=N)N)C(N)=O [C16-Hp-GGG-Jp, C16-KKWKGGGARLPR] (Palmitoyl-KKWKGGGARLPR-NH2)?
A: IC50 [1]: 8.05 ± 0.52 µM; CC50 at 48 h [2]: > 200 µM

Q: Which IC50 [1] does the source give for CCCCCCCCCCCCCCCC(=O)N[C@@H](CCCCN)C(=O)N[C@@H](CCCCN)C(=O)N[C@@H](Cc1c[nH]c2ccccc12)C(=O)N[C@@H](CCCCN)C(=O)N[C@@H](C)C(=O)N[C@@H](CCCNC(=N)N)C(=O)N[C@@H](CC(C)C)C(=O)N1CCC[C@H]1C(=O)N[C@@H](CCCNC(=N)N)C(N)=O [C16-Hp-Jp, C16-KKWKARLPR] (Palmitoyl-KKWKARLPR-NH2) here?
A: 2.48 ± 0.24 µM

Q: What about the CC50 at 48 h [2] of the same compound?
A: > 200 µM

Q: For CCCCCCCCCCCCCCCC(=O)N[C@@H](C)C(=O)N[C@@H](CCCNC(=N)N)C(=O)N[C@@H](CC(C)C)C(=O)N1CCC[C@H]1C(=O)N[C@@H](CCCNC(=N)N)C(=O)N[C@@H](CCCCN)C(=O)N[C@@H](CCCCN)C(=O)N[C@@H](Cc1c[nH]c2ccccc12)C(=O)N[C@@H](CCCCN)C(N)=O [C16-Jp-Hp, C16-ARLPRKKWK] (Palmitoyl-ARLPRKKWK-NH2), which IC50 [1] is on record?
A: 1.29 ± 0.4 µM

Q: What about the CC50 at 48 h [2] of the same compound?
A: > 200 µM

Q: Which CC50 does the source give for CCCCCCCCCCCCCCCCCCCC(=O)N[C@@H](C)C(=O)N[C@@H](CCCNC(=N)N)C(=O)N[C@@H](CC(C)C)C(=O)N1CCC[C@H]1C(=O)N[C@@H](CCCNC(=N)N)C(=O)NCC(=O)NCC(=O)NCC(=O)N[C@@H](CCCCN)C(=O)N[C@@H](CCCCN)C(=O)N[C@@H](Cc1c[nH]c2ccccc12)C(=O)N[C@@H](CCCCN)C(N)=O [C20-Jp-GGG-Hp, C20-ARLPRGGGKKWK] (Arachidoyl-ARLPRGGGKKWK-NH2) here?
A: > 200 µM

Q: And the IC50 [1]?
A: 4.04 ± 0.02 µM

Q: Which IC50 [3] does the source give for NC(=O)c1ncn([C@@H]2O[C@H](CO)[C@@H](O)[C@H]2O)n1 [Ribavirin, ribavirin] here?
A: 8.47 ± 3.01 µM

Q: What about the IC50 [4] of the same compound?
A: 6.71 ± 0.93 µM

Q: And the IC50 [5]?
A: 4.92 ± 1.45 µM

Q: And the IC50 [6]?
A: 12.85 ± 0.08 µM

Q: What about the IC50 [7] of the same compound?
A: 24.9 ± 1.1 µM
